Experimental data from paper PMC12714254, “Exploiting peptide chirality and transport to dissect the complex mechanism of action of host peptides on bacteria” (PLOS Genetics, 2025).

Assays:
[1] = tested on: S. meliloti cell cycle; parameters: method as in PMID 24501120; details: ref [12]; cited from earlier work
[2] = tested on: in vitro coupled transcription-translation (GFP reporter); experiment: In vitro translation assay, GFP fluorescence; format: biochemical; details: same molarity, S3C Fig

## Polymyxin B
[1]
  cell cycle changes: cannot elicit cell cycle changes

## LL37: cationic peptide LL37 (LLGDFFRKSKEKIGKEFKRIVQRIKDFLRNLVPRTES; Antibacterial peptide LL-37; UniProt P49913 134-170, looked up)
[2]
  translation inhibition by LL37 vs NCR247: very diminished phenotype as compared to the L-NCR247 and was lesser than the inhibition by D-NCR247
[1]
  cell cycle changes: cannot elicit cell cycle changes
